What was measured:
Experiment in all cases: SelectScreen ZLYTE
Type in all cases: biochemical
ABL1 E255K = molecular target: T1, ABL1 E255K (Homo sapiens, UniProt P00519, E255K); details: ATP Km, read-out: Percentage of inhibition
T1 construct: purchased Life Technologies
Experimental: (§1) We further evaluated the selectivity profile of compound 55 on a larger panel of kinases (SelectScreen Whole Panel, Life Technologies). The inhibition profile of 55, evaluated at 1 μM, is depicted on a dendrogram on Figure 3 where kinases inhibited by a minimum of 80% are shown. A full list of the kinases tested is shown on Table S1 in supplementary information.

ABL1 Y253F = molecular target: T2, ABL1 Y253F (Homo sapiens, UniProt P00519, Y253F); details: ATP Km, read-out: Percentage of inhibition
T2 construct: purchased Life Technologies (SelectScreen Whole Panel)
Experimental: as §1

ALK = molecular target: T3, ALK (Homo sapiens, UniProt Q9UM73); details: ATP Km, read-out: Percentage of inhibition
T3 construct: purchased Life Technologies (SelectScreen service)
Experimental: as §1

AMPK (A1/B2/G2) = AMPK (A1/B2/G2) (Homo sapiens, UniProt Q13131); details: ATP Km, read-out: Percentage of inhibition
Experimental: as §1

AMPK (A2/B2/G3) = AMPK (A2/B2/G3) (Homo sapiens, UniProt P54646); details: ATP Km, read-out: Percentage of inhibition
Experimental: as §1

AXL = molecular target: T4, AXL (Homo sapiens, UniProt P30530); details: ATP Km, read-out: Percentage of inhibition
T4 construct: purchased Life Technologies
Experimental: as §1

BRAF V599E = molecular target: T5, BRAF V599E (Homo sapiens, UniProt P15056, V600E); details: ATP 100 µM, read-out: Percentage of inhibition
T5 construct: purchased Life Technologies
Experimental: as §1

CDK2/cyclin A = molecular target: T6, CDK2/cyclin A (Homo sapiens, UniProt P24941); details: ATP Km, read-out: Percentage of inhibition
T6 construct: purchased Life Technologies
Experimental: as §1

CDK5/p25 = molecular target: T7, CDK5/p25 (Homo sapiens, UniProt Q00535); details: ATP Km, read-out: Percentage of inhibition
T7 construct: purchased Life Technologies
Experimental: as §1

CSNK1D (CK1 delta) = molecular target: T8, CSNK1D (CK1 delta) (Homo sapiens, UniProt P48730); details: ATP Km, read-out: Percentage of inhibition
T8 construct: purchased Life Technologies (SelectScreen service)
Experimental: as §1

EGFR (ErbB1) G719S = molecular target: T9, EGFR (ErbB1) G719S (Homo sapiens, UniProt P00533, G719S); details: ATP Km, read-out: Percentage of inhibition
T9 construct: purchased Life Technologies (SelectScreen Whole Panel service)
Experimental: as §1

EPHA4 = molecular target: T10, EPHA4 (Homo sapiens, UniProt P54764); details: ATP Km, read-out: Percentage of inhibition
T10 construct: purchased Life Technologies (SelectScreen)
Experimental: as §1

FER = FER (Homo sapiens, UniProt P16591); details: ATP Km, read-out: Percentage of inhibition
Experimental: as §1

FGFR2 N549H = molecular target: T11, FGFR2 N549H (Homo sapiens, UniProt P21802, N549H); details: ATP Km, read-out: Percentage of inhibition
T11 construct: purchased Life Technologies (SelectScreen service)
Experimental: as §1

FGFR4 = FGFR4 (Homo sapiens, UniProt P22455); details: ATP Km, read-out: Percentage of inhibition
Experimental: as §1

FLT4 (VEGFR3) = molecular target: T12, FLT4 (VEGFR3) (Homo sapiens, UniProt P35916); details: ATP Km, read-out: Percentage of inhibition
T12 construct: purchased Life Technologies (SelectScreen service)
Experimental: as §1

HIPK2 = molecular target: T13, HIPK2 (Homo sapiens, UniProt Q9H2X6); details: ATP Km, read-out: Percentage of inhibition
T13 construct: purchased Life Technologies (SelectScreen service)
Experimental: as §1

HIPK4 = molecular target: T14, HIPK4 (Homo sapiens, UniProt Q8NE63); details: ATP Km, read-out: Percentage of inhibition
T14 construct: purchased Life Technologies (SelectScreen service)
Experimental: as §1

KSR2 = KSR2 (Homo sapiens, UniProt Q6VAB6); details: ATP Km, read-out: Percentage of inhibition
Experimental: as §1

LTK (TYK1) = molecular target: T15, LTK (TYK1) (Homo sapiens, UniProt P29376); details: ATP Km, read-out: Percentage of inhibition
T15 construct: purchased Life Technologies (SelectScreen Whole Panel service)
Experimental: as §1

LYN B = LYN B (Homo sapiens, UniProt P07948); details: ATP Km, read-out: Percentage of inhibition
Experimental: as §1

MAP3K8 (COT) = molecular target: T16, MAP3K8 (COT) (Homo sapiens, UniProt P41279); details: ATP 100 µM, read-out: Percentage of inhibition
T16 construct: purchased Life Technologies (SelectScreen service)
Experimental: as §1

MAPK13 (p38 delta) = MAPK13 (p38 delta) (Homo sapiens, UniProt O15264); details: ATP Km, read-out: Percentage of inhibition
Experimental: as §1

[1] = molecular target: MAPK14 (p38 alpha) Direct (Homo sapiens, UniProt Q16539); details: ATP Km, read-out: Percentage of inhibition
Experimental: as §1

MARK2 = molecular target: T17, MARK2 (Homo sapiens, UniProt Q7KZI7); details: ATP Km, read-out: Percentage of inhibition
T17 construct: purchased Life Technologies (SelectScreen Whole Panel service)
Experimental: as §1

MARK3 = molecular target: T18, MARK3 (Homo sapiens, UniProt P27448); details: ATP Km, read-out: Percentage of inhibition
T18 construct: purchased Life Technologies
Experimental: as §1

NEK2 = molecular target: T19, NEK2 (Homo sapiens, UniProt P51955); details: ATP Km, read-out: Percentage of inhibition
T19 construct: purchased Life Technologies (SelectScreen Whole Panel)
Experimental: as §1

PAK2 (PAK65) = PAK2 (PAK65) (Homo sapiens, UniProt Q13177); details: ATP Km, read-out: Percentage of inhibition
Experimental: as §1

PEAK1 = molecular target: T20, PEAK1 (Homo sapiens, UniProt Q9H792); details: ATP Km, read-out: Percentage of inhibition
T20 construct: purchased Life Technologies (SelectScreen Whole Panel)
Experimental: as §1

PHKG2 = molecular target: T21, PHKG2 (Homo sapiens, UniProt P15735); details: ATP Km, read-out: Percentage of inhibition
T21 construct: purchased Life Technologies (SelectScreen)
Experimental: as §1

PIM3 = molecular target: T22, PIM3 (Homo sapiens, UniProt Q86V86); details: ATP Km, read-out: Percentage of inhibition
T22 construct: purchased Life Technologies
Experimental: as §1

PRKCE (PKC epsilon) = molecular target: T23, PRKCE (PKC epsilon) (Homo sapiens, UniProt Q02156); details: ATP Km, read-out: Percentage of inhibition
T23 construct: purchased Life Technologies (SelectScreen Whole Panel service)
Experimental: as §1

PRKCG (PKC gamma) = PRKCG (PKC gamma) (Homo sapiens, UniProt P05129); details: ATP Km, read-out: Percentage of inhibition
Experimental: as §1

PTK2 (FAK) = molecular target: T24, PTK2 (FAK) (Homo sapiens, UniProt Q05397); details: ATP Km, read-out: Percentage of inhibition
T24 construct: purchased Life Technologies (SelectScreen service)
Experimental: as §1

PTK2B (FAK2) = molecular target: T25, PTK2B (FAK2) (Homo sapiens, UniProt Q14289); details: ATP Km, read-out: Percentage of inhibition
T25 construct: purchased Life Technologies (SelectScreen Whole Panel service)
Experimental: as §1

RPS6KA3 (RSK2) = molecular target: T26, RPS6KA3 (RSK2) (Homo sapiens, UniProt P51812); details: ATP Km, read-out: Percentage of inhibition
T26 construct: purchased Life Technologies (SelectScreen service)
Experimental: as §1

STK22D (TSSK1) = molecular target: T27, STK22D (TSSK1) (Homo sapiens, UniProt Q9BXA7); details: ATP Km, read-out: Percentage of inhibition
T27 construct: purchased Life Technologies (SelectScreen Whole Panel service)
Experimental: as §1

TYK2 = molecular target: T28, TYK2 (Homo sapiens, UniProt P29597); details: ATP Km, read-out: Percentage of inhibition
T28 construct: purchased Life Technologies (SelectScreen Whole Panel)
Experimental: as §1

TYRO3 (RSE) = TYRO3 (RSE) (Homo sapiens, UniProt Q06418); details: ATP Km, read-out: Percentage of inhibition
Experimental: as §1

T18 sequence (P27448 whole entry): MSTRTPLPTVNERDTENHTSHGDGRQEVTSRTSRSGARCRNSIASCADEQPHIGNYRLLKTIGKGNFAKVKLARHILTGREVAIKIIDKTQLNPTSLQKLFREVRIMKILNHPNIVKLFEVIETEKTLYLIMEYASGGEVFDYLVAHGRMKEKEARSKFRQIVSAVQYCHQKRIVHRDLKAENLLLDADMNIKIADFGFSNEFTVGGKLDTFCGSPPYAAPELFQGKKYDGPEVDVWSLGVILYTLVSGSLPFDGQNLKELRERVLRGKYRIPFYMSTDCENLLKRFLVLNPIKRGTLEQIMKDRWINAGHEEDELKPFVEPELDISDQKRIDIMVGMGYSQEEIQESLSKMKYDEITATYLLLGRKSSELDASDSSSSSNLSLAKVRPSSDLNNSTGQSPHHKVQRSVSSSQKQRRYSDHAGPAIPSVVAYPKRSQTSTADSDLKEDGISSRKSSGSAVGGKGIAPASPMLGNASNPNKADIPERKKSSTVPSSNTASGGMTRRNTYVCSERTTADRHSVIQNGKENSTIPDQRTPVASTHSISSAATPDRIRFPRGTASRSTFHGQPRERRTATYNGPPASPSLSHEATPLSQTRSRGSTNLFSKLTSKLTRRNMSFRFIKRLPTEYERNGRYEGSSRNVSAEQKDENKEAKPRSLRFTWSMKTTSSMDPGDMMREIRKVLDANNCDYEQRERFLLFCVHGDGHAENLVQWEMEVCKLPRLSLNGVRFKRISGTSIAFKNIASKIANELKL
Chain of TYRO3 (RSE) (Q06418 41-890): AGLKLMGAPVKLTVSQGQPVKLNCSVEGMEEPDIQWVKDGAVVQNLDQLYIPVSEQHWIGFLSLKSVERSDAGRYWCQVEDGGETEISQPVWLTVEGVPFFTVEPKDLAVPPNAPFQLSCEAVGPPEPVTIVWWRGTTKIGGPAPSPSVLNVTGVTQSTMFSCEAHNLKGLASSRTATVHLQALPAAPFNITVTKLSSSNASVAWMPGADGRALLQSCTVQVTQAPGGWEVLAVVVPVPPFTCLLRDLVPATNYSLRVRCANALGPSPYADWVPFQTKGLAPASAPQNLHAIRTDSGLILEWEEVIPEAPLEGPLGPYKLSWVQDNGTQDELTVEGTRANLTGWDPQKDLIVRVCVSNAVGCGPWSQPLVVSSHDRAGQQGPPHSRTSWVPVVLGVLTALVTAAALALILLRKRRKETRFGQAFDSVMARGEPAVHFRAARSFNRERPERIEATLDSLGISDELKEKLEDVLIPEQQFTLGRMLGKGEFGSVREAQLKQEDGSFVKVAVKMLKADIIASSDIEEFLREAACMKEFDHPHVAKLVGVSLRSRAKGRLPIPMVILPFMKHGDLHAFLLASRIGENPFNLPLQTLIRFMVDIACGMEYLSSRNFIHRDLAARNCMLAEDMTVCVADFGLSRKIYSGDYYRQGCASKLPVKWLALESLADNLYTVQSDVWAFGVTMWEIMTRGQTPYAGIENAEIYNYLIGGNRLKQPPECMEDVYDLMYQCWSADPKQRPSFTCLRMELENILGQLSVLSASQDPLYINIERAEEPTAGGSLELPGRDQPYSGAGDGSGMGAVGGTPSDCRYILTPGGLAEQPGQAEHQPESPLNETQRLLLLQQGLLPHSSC
T5 sequence (P15056 416-766 V600E limits assumed): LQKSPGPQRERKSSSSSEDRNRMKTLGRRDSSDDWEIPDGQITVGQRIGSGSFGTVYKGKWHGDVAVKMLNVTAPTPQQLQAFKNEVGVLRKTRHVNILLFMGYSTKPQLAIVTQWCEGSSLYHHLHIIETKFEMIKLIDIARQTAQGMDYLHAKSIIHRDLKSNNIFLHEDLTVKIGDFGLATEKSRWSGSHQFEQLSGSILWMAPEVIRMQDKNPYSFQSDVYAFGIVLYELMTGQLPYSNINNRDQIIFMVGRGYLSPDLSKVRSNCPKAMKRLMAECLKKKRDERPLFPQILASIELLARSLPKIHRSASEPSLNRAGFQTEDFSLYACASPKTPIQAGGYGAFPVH
Chain of FGFR4 (P22455 22-802): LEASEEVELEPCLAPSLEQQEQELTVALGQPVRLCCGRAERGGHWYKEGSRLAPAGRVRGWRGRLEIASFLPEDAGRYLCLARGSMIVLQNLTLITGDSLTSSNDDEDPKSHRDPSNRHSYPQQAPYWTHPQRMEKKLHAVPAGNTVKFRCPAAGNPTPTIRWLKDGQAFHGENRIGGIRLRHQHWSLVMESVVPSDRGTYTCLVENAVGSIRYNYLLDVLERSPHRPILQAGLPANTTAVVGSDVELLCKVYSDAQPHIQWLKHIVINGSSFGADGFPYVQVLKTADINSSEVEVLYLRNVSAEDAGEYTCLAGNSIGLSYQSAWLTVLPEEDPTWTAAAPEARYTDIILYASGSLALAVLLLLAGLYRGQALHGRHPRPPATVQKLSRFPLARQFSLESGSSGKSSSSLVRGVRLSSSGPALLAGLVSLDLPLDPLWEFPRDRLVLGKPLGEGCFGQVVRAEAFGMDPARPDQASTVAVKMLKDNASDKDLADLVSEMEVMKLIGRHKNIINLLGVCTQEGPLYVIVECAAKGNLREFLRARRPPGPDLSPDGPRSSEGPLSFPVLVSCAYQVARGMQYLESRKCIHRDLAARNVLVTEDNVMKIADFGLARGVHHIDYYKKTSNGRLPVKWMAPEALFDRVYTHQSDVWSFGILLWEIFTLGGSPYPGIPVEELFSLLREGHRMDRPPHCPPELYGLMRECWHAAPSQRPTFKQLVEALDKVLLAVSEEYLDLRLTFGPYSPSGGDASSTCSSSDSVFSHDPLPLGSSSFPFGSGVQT
T26 sequence (P51812 whole entry): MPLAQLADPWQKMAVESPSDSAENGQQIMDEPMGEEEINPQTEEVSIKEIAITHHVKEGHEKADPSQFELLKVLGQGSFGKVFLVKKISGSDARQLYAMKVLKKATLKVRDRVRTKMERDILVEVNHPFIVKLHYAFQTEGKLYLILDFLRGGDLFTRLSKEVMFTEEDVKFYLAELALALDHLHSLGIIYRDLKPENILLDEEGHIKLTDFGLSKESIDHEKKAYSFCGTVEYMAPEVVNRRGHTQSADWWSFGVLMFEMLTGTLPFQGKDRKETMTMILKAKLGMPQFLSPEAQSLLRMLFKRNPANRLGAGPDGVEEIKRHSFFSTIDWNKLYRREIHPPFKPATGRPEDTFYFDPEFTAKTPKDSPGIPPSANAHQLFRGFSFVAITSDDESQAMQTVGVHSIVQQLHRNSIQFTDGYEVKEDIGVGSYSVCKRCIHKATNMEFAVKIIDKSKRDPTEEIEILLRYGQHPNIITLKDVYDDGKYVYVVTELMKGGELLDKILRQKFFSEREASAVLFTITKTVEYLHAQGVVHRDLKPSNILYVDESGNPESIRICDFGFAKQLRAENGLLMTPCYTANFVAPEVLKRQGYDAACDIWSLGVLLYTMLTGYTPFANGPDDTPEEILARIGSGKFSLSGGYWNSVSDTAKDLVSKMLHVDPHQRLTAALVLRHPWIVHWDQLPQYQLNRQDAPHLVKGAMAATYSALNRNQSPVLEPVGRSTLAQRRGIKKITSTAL
Chain of PAK2 (PAK65) (Q13177 whole entry): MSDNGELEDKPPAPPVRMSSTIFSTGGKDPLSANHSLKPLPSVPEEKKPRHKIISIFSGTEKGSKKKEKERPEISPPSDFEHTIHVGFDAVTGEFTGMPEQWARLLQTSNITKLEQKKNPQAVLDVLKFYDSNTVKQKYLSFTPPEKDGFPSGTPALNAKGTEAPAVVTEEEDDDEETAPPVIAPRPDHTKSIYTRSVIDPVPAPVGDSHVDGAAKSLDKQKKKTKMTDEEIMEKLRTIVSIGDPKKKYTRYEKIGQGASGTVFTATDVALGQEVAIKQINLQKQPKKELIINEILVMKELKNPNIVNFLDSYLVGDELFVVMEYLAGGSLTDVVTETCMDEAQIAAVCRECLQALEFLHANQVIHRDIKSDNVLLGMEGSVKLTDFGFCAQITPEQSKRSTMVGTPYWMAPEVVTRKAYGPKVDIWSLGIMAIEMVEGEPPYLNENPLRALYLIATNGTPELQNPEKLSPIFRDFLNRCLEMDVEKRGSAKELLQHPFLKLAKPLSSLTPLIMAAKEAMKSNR

`COc1ccc2[nH]c3c(=O)[nH]c4ccc(O)cc4c3c2c1` [Compound 55, 2-Hydroxy-10-methoxy-5,7-dihydro-6H-indolo[2,3-c]quinolin-6-one] gave an inhibition at 1 µM (ABL1 E255K) of 39%, an inhibition at 1 µM (ABL1 Y253F) of 55% and an inhibition at 1 µM (ALK) of 24%. For the same compound, the inhibition at 1 µM (AMPK (A1/B2/G2)) was 67%, the inhibition at 1 µM (AMPK (A2/B2/G3)) was 57% and the inhibition at 1 µM (AXL) was 37%. The inhibition at 1 µM (BRAF V599E) was 96%, the inhibition at 1 µM (CDK2/cyclin A) was 34% and the inhibition at 1 µM (CDK5/p25) was 33%. It also gave an inhibition at 1 µM (CSNK1D (CK1 delta)) of 81%, an inhibition at 1 µM (EGFR (ErbB1) G719S) of 11% and an inhibition at 1 µM (EPHA4) of 7%. For the same compound, the inhibition at 1 µM (FER) was 56%, the inhibition at 1 µM (FGFR2 N549H) was 24% and the inhibition at 1 µM (FGFR4) was 22%. For the same compound, the inhibition at 1 µM (FLT4 (VEGFR3)) was 72%, the inhibition at 1 µM (HIPK2) was 74% and the inhibition at 1 µM (HIPK4) was 24%. The inhibition at 1 µM (KSR2) was 7%, the inhibition at 1 µM (LTK (TYK1)) was 16% and the inhibition at 1 µM (LYN B) was 67%. It also gave an inhibition at 1 µM (MAP3K8 (COT)) of 91%, an inhibition at 1 µM (MAPK13 (p38 delta)) of 20% and an inhibition at 1 µM [1] of 6%. The inhibition at 1 µM (MARK2) was 12%, the inhibition at 1 µM (MARK3) was 31% and the inhibition at 1 µM (NEK2) was -11%. It also gave an inhibition at 1 µM (PAK2 (PAK65)) of 6%, an inhibition at 1 µM (PEAK1) of 50% and an inhibition at 1 µM (PHKG2) of 8%. For the same compound, the inhibition at 1 µM (PIM3) was 33%, the inhibition at 1 µM (PRKCE (PKC epsilon)) was 10% and the inhibition at 1 µM (PRKCG (PKC gamma)) was 14%. It also gave an inhibition at 1 µM (PTK2 (FAK)) of 25%, an inhibition at 1 µM (PTK2B (FAK2)) of 46% and an inhibition at 1 µM (RPS6KA3 (RSK2)) of 83%. It also gave an inhibition at 1 µM (STK22D (TSSK1)) of 19%, an inhibition at 1 µM (TYK2) of 51% and an inhibition at 1 µM (TYRO3 (RSE)) of 60%.

— article PMC9186362, “Design and biological evaluation of substituted 5,7-dihydro-6H-indolo[2,3-c]quinolin-6-one as novel selective Haspin inhibitors” (Journal of Enzyme Inhibition and Medicinal Chemistry, 2022)
